Read-outs that look alike come from different tables or passages of the source.
Test system: androgen receptor (AR) in LNCaP and/or VCaP cells
Assay: Androgen Receptor ELISA assay (AR degradation)
Format: cell-based
Procedure, shortened: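 VCaP cells grown ≥3 days, then treated 5 h with compound in media containing 1 nM R1881 (10× stock). Cells lysed and AR quantified by sandwich ELISA (mouse AR detection Ab, HRP anti-mouse, TMB). DC50 and Dmax derived from AR degradation.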

[1] = degradation of AR ELISA in LNCaP and/or VCaP cells, Table 2C, read-out: DC50 Code*
[2] = LNCaP and/or VCaP cells, 5 hours incubation, media with R1881, read-out: DC50 Code* (degradation of AR ELISA)

DC50 [1]	DC50 [2]	SMILES
–	< 1 nM	Cc1cc(O[C@H]2CC[C@H](NC(=O)c3cnc(N4CCC(CN(C(C)C)[C@H]5C[C@H](Oc6ccc7c(c6)C(=O)N(C6CCC(=O)NC6=O)C7=O)C5)CC4)cn3)CC2)cc(C)c1C#N (some centres unmarked) [Compound 25, N-((1r,4r)-4-(4-cyano-3,5-dimethylphenoxy)cyclohexyl)-5-(4-((((1r,3r)-3-((2-(2,6-dioxopiperidin-3-yl)-1,3-dioxoisoindolin-5-yl)oxy)cyclobutyl) (isopropyl)amino)methyl)piperidin-1-yl)pyrazine-2-carboxamide]
< 1 nM	–	CCN(C1CCN(c2ccc(C(=O)N[C@H]3C(C)(C)[C@H](Oc4cc(C)c(C#N)c(C)c4)C3(C)C)cc2)CC1)[C@H]1C[C@H](Oc2ccc3c(c2)C(=O)N(C2CCC(=O)NC2=O)C3=O)C1 (mixture of isomers) [compound 173, rac-N-((1r,3r)-3-(4-cyano-3,5-dimethylphenoxy)-2,2,4,4-tetramethylcyclobutyl)-4-(4-(((1r,3r)-3-((2-(2,6-dioxopiperidin-3-yl)-1,3-dioxoisoindolin-5-yl)oxy)cyclobutyl) (ethyl)amino)piperidin-1-yl)benzamide]
< 1 nM	–	COCCN(CC1CCN(c2ccc(C(=O)N[C@H]3C(C)(C)[C@H](Oc4ccc(C#N)c(Cl)c4)C3(C)C)nn2)CC1)[C@H]1C[C@H](Oc2ccc3c(c2)C(=O)N(C2CCC(=O)NC2=O)C3=O)C1 (some centres unmarked) [compound 127, N-((1r,3r)-3-(3-chloro-4-cyanophenoxy)-2,2,4,4-tetramethylcyclobutyl)-6-(4-((((1r,3r)-3-((2-(2,6-dioxopiperidin-3-yl)-1,3-dioxoisoindolin-5-yl)oxy)cyclobutyl)(2-methoxyethyl)amino)methyl)piperidin-1-yl)pyridazine-3-carboxamide]
< 1 nM	–	COc1cc(O[C@H]2C[C@H](N(CC3(F)CCN(c4ncc(C(=O)N[C@H]5C(C)(C)[C@H](Oc6cc(C)c(C#N)c(C)c6)C5(C)C)cn4)CC3)C(C)C)C2)cc2c1C(=O)N(C1CCC(=O)NC1=O)C2=O (some centres unmarked) [compound 231, N-((1r,3r)-3-(4-cyano-3,5-dimethylphenoxy)-2,2,4,4-tetramethylcyclobutyl)-2-(4-((((1r,3r)-3-((2-(2,6-dioxopiperidin-3-yl)-7-methoxy-1,3-dioxoisoindolin-5-yl)oxy)cyclobutyl) (isopropyl)amino)methyl)-4-fluoropiperidin-1-yl)pyrimidine-5-carboxamide]
–	< 1 nM	CCOc1cc(O[C@H]2CC[C@H](NC(=O)c3cnc(N4CCC(CN(C(C)C)[C@H]5C[C@H](Oc6ccc7c(c6)C(=O)N(C6CCC(=O)NC6=O)C7=O)C5)CC4)cn3)CC2)ccc1C#N (some centres unmarked) [Compound 64, N-((1r,4r)-4-(4-cyano-3-ethoxyphenoxy)cyclohexyl)-5-(4-((((1r,3r)-3-((2-(2,6-dioxopiperidin-3-yl)-1,3-dioxoisoindolin-5-yl)oxy)cyclobutyl) (isopropyl)amino)methyl)piperidin-1-yl)pyrazine-2-carboxamide]
< 1 nM	–	CC1(C)[C@H](NC(=O)c2ccc(N3CCN([C@H]4CC[C@H](Oc5ccc6c(c5)C(=O)N(C5CCC(=O)NC5=O)C6=O)C4)CC3)cc2)C(C)(C)[C@H]1Oc1ccc(C#N)c(Cl)c1 (stereo partly drawn) [compound 125, N-((1r,3S)-3-(3-chloro-4-cyanophenoxy)-2,2,4,4-tetramethylcyclobutyl)-4-(4-((1S,3S)-3-((2-(2,6-dioxopiperidin-3-yl)-1,3-dioxoisoindolin-5-yl)oxy)cyclopentyl)piperazin-1-yl)benzamide]
< 1 nM	–	CCN(CC1CCN(c2ccc(C(=O)N[C@H]3C(C)(C)[C@H](Oc4cc(C)c(C#N)c(C)c4)C3(C)C)cc2)CC1)[C@H]1C[C@H](Oc2cc(OC)c3c(c2)C(=O)N(C2CCC(=O)NC2=O)C3=O)C1 (mixture of isomers) [compound 169, rac-N-((1r,3r)-3-(4-cyano-3,5-dimethylphenoxy)-2,2,4,4-tetramethylcyclobutyl)-4-(4-((((1r,3r)-3-((2-(2,6-dioxopiperidin-3-yl)-7-methoxy-1,3-dioxoisoindolin-5-yl)oxy)cyclobutyl) (ethyl)amino)methyl)piperidin-1-yl) benzamide]
–	< 1 nM	N#Cc1ccc(O[C@H]2CC[C@H](NC(=O)c3cnc(N4CCC(CN(C5CCOC5)[C@H]5C[C@H](Oc6ccc7c(c6)C(=O)N(C6CCC(=O)NC6=O)C7=O)C5)CC4)cn3)CC2)cc1Cl (some centres unmarked) [Compound 62, N-((1r,4r)-4-(3-chloro-4-cyanophenoxy)cyclohexyl)-5-(4-((((1r,3r)-3-((2-(2,6-dioxopiperidin-3-yl)-1,3-dioxoisoindolin-5-yl)oxy)cyclobutyl) (tetrahydrofuran-3-yl)amino)methyl)piperidin-1-yl)pyrazine-2-carboxamide]
–	< 1 nM	COCCN(CC1CCN(c2cnc(C(=O)N[C@H]3CC[C@H](Oc4ccc(C#N)c(Cl)c4)CC3)cn2)CC1)[C@H]1C[C@H](Oc2ccc3c(c2)CN(C2CCC(=O)NC2=O)C3=O)C1 (some centres unmarked) [Compound 16, N-((1r,4r)-4-(3-chloro-4-cyanophenoxy)cyclohexyl)-5-(4-((((1r,3r)-3-((2-(2,6-dioxopiperidin-3-yl)-1-oxoisoindolin-5-yl)oxy)cyclobutyl)(2-methoxyethyl)amino)methyl)piperidin-1-yl)pyrazine-2-carboxamide]
< 1 nM	–	CC(C)N(CC1CCN(c2ncc(C(=O)N[C@H]3C(C)(C)[C@H](Oc4ccc(C#N)c(Cl)c4)C3(C)C)cn2)CC1)[C@H]1C[C@H](Oc2ccc3c(c2)C(=O)N(C2CCC(=O)NC2=O)C3)C1 (some centres unmarked) [compound 95, N-((1r,3r)-3-(3-chloro-4-cyanophenoxy)-2,2,4,4-tetramethylcyclobutyl)-2-(4-((((1r,3r)-3-((2-(2,6-dioxopiperidin-3-yl)-3-oxoisoindolin-5-yl)oxy)cyclobutyl) (isopropyl)amino)methyl)piperidin-1-yl)pyrimidine-5-carboxamide]
< 1 nM	–	CCN(C1CCN(c2ccc(C(=O)N[C@H]3C(C)(C)[C@H](Oc4cc(C)c(C#N)c(C)c4)C3(C)C)cc2)CC1)[C@H]1C[C@H](Oc2cc(OC)c3c(c2)C(=O)N(C2CCC(=O)NC2=O)C3=O)C1 (mixture of isomers) [compound 165, rac-N-((1r,3r)-3-(4-cyano-3,5-dimethylphenoxy)-2,2,4,4-tetramethylcyclobutyl)-4-(4-(((1r,3r)-3-((2-(2,6-dioxopiperidin-3-yl)-7-methoxy-1,3-dioxoisoindolin-5-yl)oxy)cyclobutyl) (ethyl)amino)piperidin-1-yl)benzamide]
< 1 nM	–	Cc1cc(O[C@H]2C(C)(C)[C@H](NC(=O)c3ccc(N4CCC(CN(C(C)C)[C@H]5C[C@H](Oc6ccc7c(c6)C(=O)N([C@@H]6CCC(=O)NC6=O)C7=O)C5)CC4)cc3)C2(C)C)cc(C)c1C#N [compound 160, N-((1r,3r)-3-(4-cyano-3,5-dimethylphenoxy)-2,2,4,4-tetramethylcyclobutyl)-4-(4-((((1R,3r)-3-((2-((R)-2,6-dioxopiperidin-3-yl)-1,3-dioxoisoindolin-5-yl)oxy)cyclobutyl) (isopropyl)amino)methyl)piperidin-1-yl)benzamide]
–	< 1 nM	N#Cc1ccc(O[C@H]2CC[C@H](NC(=O)c3cnc(N4CCC(CN(C5COC5)[C@H]5C[C@H](Oc6ccc7c(c6)CN(C6CCC(=O)NC6=O)C7=O)C5)CC4)cn3)CC2)cc1Cl (some centres unmarked) [Compound 21, N-((1r,4r)-4-(3-chloro-4-cyanophenoxy)cyclohexyl)-5-(4-((((1r,3r)-3-((2-(2,6-dioxopiperidin-3-yl)-1-oxoisoindolin-5-yl)oxy)cyclobutyl) (oxetan-3-yl)amino)methyl)piperidin-1-yl)pyrazine-2-carboxamide]
> 100 nM	–	CC(C)N(CC1CCN(c2cnc(C(=O)N[C@H]3C(C)(C)[C@H](Oc4ccc(C#N)c(Cl)c4)C3(C)C)cn2)CC1)[C@H]1C[C@H](Oc2ccc3c(c2)C2(CC2)N(C2CCC(=O)NC2=O)C3=O)C1 (some centres unmarked) [compound 138, N-((1r,3r)-3-(3-chloro-4-cyanophenoxy)-2,2,4,4-tetramethylcyclobutyl)-5-(4-((((1r,3r)-3-((2′-(2,6-dioxopiperidin-3-yl)-3′-oxospiro[cyclopropane-1,1′-isoindolin]-6′-yl)oxy)cyclobutyl) (isopropyl)amino)methyl)piperidin-1-yl)pyrazine-2-carboxamide]
< 1 nM	–	Cc1cc(O[C@H]2C(C)(C)[C@H](NC(=O)c3cnc(N4CCC(CCN5CC(Oc6ccc7c(c6)C(=O)N(C6CCC(=O)NC6=O)C7=O)C5)CC4)nc3)C2(C)C)cc(C)c1C#N (some centres unmarked) [compound 85, N-((1r,3r)-3-(4-cyano-3,5-dimethylphenoxy)-2,2,4,4-tetramethylcyclobutyl)-2-(4-(2-(3-((2-(2,6-dioxopiperidin-3-yl)-1,3-dioxoisoindolin-5-yl)oxy)azetidin-1-yl)ethyl)piperidin-1-yl)pyrimidine-5-carboxamide]
< 1 nM	–	COc1cc2c(cc1O[C@H]1C[C@H](N(CC3CCN(c4cnc(C(=O)N[C@H]5C(C)(C)[C@H](Oc6cc(C)c(C#N)c(C)c6)C5(C)C)cn4)CC3)C(C)C)C1)C(=O)N(C1CCC(=O)NC1=O)C2=O (some centres unmarked) [Compound 199, N-((1r,3r)-3-(4-cyano-3,5-dimethylphenoxy)-2,2,4,4-tetramethylcyclobutyl)-5-(4-((((1r,3r)-3-((2-(2,6-dioxopiperidin-3-yl)-6-methoxy-1,3-dioxoisoindolin-5-yl)oxy)cyclobutyl)(isopropyl)amino)methyl)piperidin-1-yl)pyrazine-2-carboxamide]

SMILES	DC50 [1]	DC50 [2]
COCCN(CC1CCN(c2ccc(C(=O)NC3C(C)(C)C(Oc4ccc(C#N)c(OC)c4)C3(C)C)cc2)CC1)C1CC(Oc2ccc3c(c2)C(=O)N([C@@H]2CCC(=O)NC2=O)C3=O)C1 (some centres unmarked) [compound 101, N-((1r,3r)-3-(4-cyano-3-methoxyphenoxy)-2,2,4,4-tetramethylcyclobutyl)-4-(4-((((1r,3r)-3-((2-(2,6-dioxopiperidin-3-yl)-1,3-dioxoisoindolin-5-yl)oxy)cyclobutyl)(2-methoxyethyl)amino)methyl)piperidin-1-yl)benzamide]	< 1 nM	–
